Data published in patent US20250152591A1, “TREATMENT OF HEMATOLOGICAL MALIGNANCIES WITH MENIN INHIBITORS AND P-GLYCOPROTEIN INHIBITORS” (Kura Oncology, Inc., priority 2022, published 2025).
pIC50: −log10 of the molar value. Read-outs that look alike come from different tables or passages of the source.

What was measured:
MV4;11-Control cell line = assay: CellTiter-Glo cell viability assay, MV4;11-Control; format: cell-based; design: unit of the concentration uncertain; conditions: second set of experiments
Procedure: (§1) The influence of efflux pumps on the antitumor activity of the test compounds at steady state (more clinically relevant) were evaluated using P-gp-transfected AML cells (MV4;11 cells) in 6-day viability assays.
(§2) A P-gp-expressing KMT2A(MLL)-rearranged cell line model was developed by lentiviral transduction of the MV4;11 parental cell line and then selection for either Luciferase ORF (MV4;11-Control) or P-gp ORF (MV4;11-PGP).
(§3) […] Cell viability was measured by CellTiter-Glo® Luminescent Cell Viability Assay (CTG assay, Promega Corp.) and % Viability was quantified by normalizing to the luminescence values of DMSO-only treated cells. The dose-response curves and IC50's were calculated using GraphPad Prism 9.4.1.
(§4) The measured luminescence in the live cells of the MV4;11-Control and MV4;11-PGP cells that were treated with Compound I only (+DMSO), Compound I+posaconazole […], and valspodar (1 mM) are shown in FIGS. 5A and 5B.
(§5) In a second set of experiments, MV4;11-Control and MV4;11-PGP cell lines were treated as described above with five menin inhibitors, including Compound I, SNDX-5613, Compound A, Compound B, and Compound C, at concentrations ranging from 0 to 1000 nM. All tested compounds dropped in potency due to the P-gp expression as shown in FIGS. 6A-6J and in Tables 5 and 6 (indicated by increased IC50 values between “MV4;11-Control (Compound+DMSO)” and “MV4;11-PGP (Compound+DMSO)” entries).

MV4;11-PGP cell line = assay: CellTiter-Glo cell viability assay, MV4;11-PGP; format: cell-based; design: unit of the concentration uncertain; conditions: second set of experiments
Procedure: as §1, §2, §3, §4, §5

P-gp = P-gp (Homo sapiens, UniProt P08183); assay: P-gp substrate assessment using MDR1-MDCK monolayers (Example 1, +/- valspodar); format: in vitro ADME; design: expressed in transfected cells; host or cells: MDR1-MDCK cells; conditions: 12-well plates, QC of MDR1-MDCK cell batch
Sequence of P-gp (P08183 whole entry): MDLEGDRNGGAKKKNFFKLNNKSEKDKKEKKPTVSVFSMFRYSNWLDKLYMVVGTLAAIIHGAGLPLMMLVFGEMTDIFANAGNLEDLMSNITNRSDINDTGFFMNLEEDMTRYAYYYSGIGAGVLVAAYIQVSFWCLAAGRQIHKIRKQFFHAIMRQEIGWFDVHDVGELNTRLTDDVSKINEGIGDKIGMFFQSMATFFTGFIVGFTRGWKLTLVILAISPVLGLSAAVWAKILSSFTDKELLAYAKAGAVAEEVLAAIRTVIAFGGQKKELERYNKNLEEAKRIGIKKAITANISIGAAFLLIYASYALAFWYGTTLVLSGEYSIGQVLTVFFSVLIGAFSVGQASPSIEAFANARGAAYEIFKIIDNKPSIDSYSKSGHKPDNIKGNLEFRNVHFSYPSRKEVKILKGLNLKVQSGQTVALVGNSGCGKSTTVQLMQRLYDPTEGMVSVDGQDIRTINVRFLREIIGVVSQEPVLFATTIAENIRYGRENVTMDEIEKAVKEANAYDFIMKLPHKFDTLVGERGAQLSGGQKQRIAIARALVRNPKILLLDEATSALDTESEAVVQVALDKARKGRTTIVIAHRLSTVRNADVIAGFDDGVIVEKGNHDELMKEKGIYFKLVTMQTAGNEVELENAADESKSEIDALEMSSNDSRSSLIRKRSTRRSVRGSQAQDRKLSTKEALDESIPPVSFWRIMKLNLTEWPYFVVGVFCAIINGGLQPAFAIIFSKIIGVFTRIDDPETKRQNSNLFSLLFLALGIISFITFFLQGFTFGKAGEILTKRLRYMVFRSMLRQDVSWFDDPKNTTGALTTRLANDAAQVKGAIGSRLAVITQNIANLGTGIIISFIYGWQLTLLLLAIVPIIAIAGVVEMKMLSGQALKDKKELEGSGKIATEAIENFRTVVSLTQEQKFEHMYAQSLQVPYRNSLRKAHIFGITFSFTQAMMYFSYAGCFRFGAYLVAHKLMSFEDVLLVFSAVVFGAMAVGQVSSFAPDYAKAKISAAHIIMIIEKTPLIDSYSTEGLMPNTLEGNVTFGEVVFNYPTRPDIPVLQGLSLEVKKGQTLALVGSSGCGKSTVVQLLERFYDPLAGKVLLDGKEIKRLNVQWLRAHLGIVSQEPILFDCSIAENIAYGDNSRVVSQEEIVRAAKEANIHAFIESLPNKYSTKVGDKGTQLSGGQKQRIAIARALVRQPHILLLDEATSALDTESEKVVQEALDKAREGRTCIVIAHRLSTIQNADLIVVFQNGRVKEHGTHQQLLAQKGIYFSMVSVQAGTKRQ
Procedure: MDR1-MDCK cell monolayers were grown to confluence on collagen-coated, microporous membranes in 12-well assay plates. Details of the plates and their certification are shown below. The permeability assay buffer was Hanks' balanced salt solution (HBSS) containing 10 mM HEPES and 15 mM glucose at a pH of 7.4. The buffer in the receiver chamber also contained 1% bovine serum albumin. The dosing solution concentration was 5 μM of test article in the assay buffer+/−1 μM valspodar. Cells were first pre-incubated for 30 min with HBSS containing+/−1 μM valspodar. Cell monolayers were dosed on the apical side (A-to-B) or basolateral side (B-to-A) and incubated at 37° C. with 5% CO2 in a humidified incubator. Samples were taken from the donor and receiver chambers at 120 min. Each determination was performed in duplicate. The flux of lucifer yellow was also measured post-experimentally for each monolayer to ensure no damage was inflicted to the cell monolayers during the flux period. All samples were assayed by LC-MS/MS using electrospray ionization. Liquid chromatography conditions are summarized as follows: Column: Thermo BDS Hypersil C18 30×2.1 mm, […], with guard column; M.P. Buffer: 25 mM ammonium formate buffer, pH 3.5; Aqueous Reservoir (A): 90% water, 10% buffer; Organic Reservoir (B): 90% acetonitrile, 10% buffer; Flow Rate: 350 μL/minute; Total run time: 3.5 min; Autosampler: 10 μL injection volume; Autosampler wash: water/methanol/2-propanol: 1/1/1; with 0.2% formic acid.
The apparent permeability (Papp) and percent recovery were calculated as follows: […]
where, • dCr/dt is the slope of the cumulative concentration in the receiver compartment versus time in μM s^−1; • Vr is the volume of the receiver compartment in cm^3; • Vd is the volume of the donor compartment in cm^3; • A is the area of the insert (1.13 cm^2 for 12-well); • CA is the average of the nominal dosing concentration and the measured 120 minute donor concentration in μM; • CN is the nominal concentration of the dosing solution in μM; • Cr^final is the cumulative receiver concentration in μM at the end of the incubation period; • Cd^final is the concentration of the donor in μM at the end of the incubation period.
Efflux ratio (ER) is defined as Papp (B-to-A)/Papp (A-to-B).
• ER≥2.0 without valspodar, and reduced by ≥50% with valspodar: Positive • ER≥2.0 without valspodar, and reduced by <50% with valspodar: Negative • ER<2.0 without and with valspodar: Negative

[1] = 144 h, 0 to 1000 nM, Table 5, read-out: IC50 MV4;11-Control (Compound + DMSO)
[2] = 144 h, 0 to 1000 nM, Table 6, read-out: IC50 MV4;11-Control (Compound + DMSO)
[3] = posaconazole (1.5 (unit uncertain)), Table 5, read-out: IC50 MV4;11-Control (Compound + posaconazole)
[4] = valspodar (1 (unit uncertain)), Table 6, read-out: IC50 MV4;11-Control (Compound + valspodar)
[5] = 144 h, 0 to 1000 nM, Table 5, read-out: IC50 MV4;11-PGP (Compound + DMSO)
[6] = 144 h, 0 to 1000 nM, Table 6, read-out: IC50 MV4;11-PGP (Compound + DMSO)
[7] = posaconazole (1.5 (unit uncertain)), Table 5, read-out: IC50 MV4;11-PGP (Compound + posaconazole)
[8] = valspodar (1 (unit uncertain)), Table 6, read-out: IC50 MV4;11-PGP (Compound + valspodar)

| pIC50 (MV4;11-Control cell line; [1]) | pIC50 (MV4;11-Control cell line; [2]) | pIC50 (MV4;11-Control cell line; [3]) | pIC50 (MV4;11-Control cell line; [4]) | pIC50 (MV4;11-PGP cell line; [5]) | pIC50 (MV4;11-PGP cell line; [6]) | B-to-A Papp (cell batch quality control) (P-gp) | efflux ratio (cell batch quality control) (P-gp) | Papp A→B (P-gp; dog, read-out: A-to-B Papp (cell batch quality control)) [×10⁻⁶ cm/s] | SMILES | pIC50 (MV4;11-PGP cell line; [7]) | pIC50 (MV4;11-PGP cell line; [8]) |
| --- | --- | --- | --- | --- | --- | --- | --- | --- | --- | --- | --- |
| 8.64 | 8.68 | 8.70 | 8.68 | 7.66 | 7.67 |  |  |  | COc1cc(-c2ccc(CN[C@H]3C[C@@H](O)[C@@H](N(C)c4ncnc5sc(CC(F)(F)F)cc45)C3)cc2)nnc1OC [Compound A] | 8.31 | 8.62 |
| 8.48 | 8.39 | 8.60 | 8.52 | 6.97 | 6.94 |  |  |  | CCN(C(=O)c1cc(F)ccc1Oc1nncnc1N1CCC2(C1)CN([C@H](CCCN(C)CCOC)C(C)C)C2)C(C)C [Compound B] | 8.23 | 8.50 |
| 6.63 | 6.57 | 6.65 | 6.64 | 6.15 | 6.12 |  |  |  | C=CC(=O)N[C@@H]1CCCN(Cc2ccnc(C(=O)Nc3ccc(-c4cc5c(N6CCOCC6)ncnc5[nH]4)cc3)c2)C1 [Compound C] | 6.46 | 6.64 |
|  |  |  |  |  |  | 17.6 10^−6 cm/s | 243 | 0.07 | C[C@H]1O[C@@H](O[C@H]2[C@@H](O)C[C@H](O[C@H]3[C@@H](O)C[C@H](O[C@H]4CC[C@@]5(C)[C@H](CC[C@@H]6[C@@H]5C[C@@H](O)[C@]5(C)[C@@H](C7=CC(=O)OC7)CC[C@]65O)C4)O[C@@H]3C)O[C@@H]2C)C[C@H](O)[C@@H]1O [Digoxin] |  |  |
